We go through 20 compounds from patent US8318725B2, “Aryl indolyl sulfonamide compounds and their use as 5-HT6 ligands” (Suven Life Sciences Limited, priority 2008, dated 2012).

A word on the inhibition: it is the change of the read-out against control, counted positive when it falls. Usually melting point stands for the temperature of the solid-liquid transition.

SMILES strings stand for the structures. Structures can show the parent of a compound that is named as a salt.

For the first data set, the target named is T1, Human 5-HT6 receptor (Homo sapiens, UniProt P50406).
T1 construct: expressed in transfected cells; host or cells: HEK293
T1 sequence (P50406 whole entry): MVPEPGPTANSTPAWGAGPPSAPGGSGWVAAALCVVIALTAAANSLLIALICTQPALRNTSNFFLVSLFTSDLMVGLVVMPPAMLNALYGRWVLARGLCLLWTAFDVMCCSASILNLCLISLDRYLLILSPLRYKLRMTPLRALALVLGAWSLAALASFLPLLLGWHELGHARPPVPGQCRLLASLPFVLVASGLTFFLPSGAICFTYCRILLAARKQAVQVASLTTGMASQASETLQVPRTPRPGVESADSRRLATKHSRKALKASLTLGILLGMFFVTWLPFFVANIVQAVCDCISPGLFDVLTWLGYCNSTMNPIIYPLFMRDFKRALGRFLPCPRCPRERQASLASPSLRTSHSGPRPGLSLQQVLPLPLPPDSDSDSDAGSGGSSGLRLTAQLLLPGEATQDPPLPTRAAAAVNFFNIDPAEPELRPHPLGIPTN
Description: Binding assay for human 5-HT6 receptor ([3H] LSD radioligand). As to conditions: 100 nM test compound; [3H] LSD 1.5 nM; human recombinant receptor in HEK293 cells. On the procedure: Binding Assay for Human 5-HT6 Receptor
Compounds can be tested according to the following the procedures. Materials and Methods:
Receptor source: Human recombinant expressed in HEK293 cells
Radioligand: [^3H] LSD (60-80 Ci/mmol)
Final ligand concentration—[1.5 nM]
Non-specific determinant: Methiothepin mesylate—[0.1 μM]
Reference compound: Methiothepin mesylate
Positive control: Methiothepin mesylate
Reactions were carried out in […] TRIS-HCl (pH 7.4) containing 10 μM MgCl2, 0.5 mM EDTA for 60 minutes at 37° C. The reaction was terminated by rapid vacuum filtration onto glass fiber filters. Radioactivity trapped onto the filters was determined and compared to control values in order to ascertain any interactions of test compound(s) with the cloned serotonin 5-HT6binding site.
Literature Reference: Monsma F. J. Jr., et al., Molecular Cloning and Expression of Novel Serotonin Receptor with High Affinity for Tricyclic Psychotropic Drugs. Mol. Pharmacol. (43): 320-327 (1993).
For the compound `CCN1CCN(Cc2cc(S(=O)(=O)n3ccc4ccccc43)ccc2Br)CC1` [Example 1, 1-1-[4-Bromo-3-(4-ethylpiperazin-1-ylmethyl)benzenesulfonyl]-1H-indole], the “% Inhibition of specific binding at 100 nM” value was 78.91%.

Staying with this data set, now noted: 100 nM test compound; [3H] LSD 1.5 nM; human recombinant receptor in HEK293 cells; read-out: % Inhibition of specific binding at 100 nM.
Turning to `CN1CCN(Cc2cccc(S(=O)(=O)n3ccc4cc(F)ccc43)c2)CC1` [Example 10, 5-Fluoro-1-[3-(4-methylpiperazin-1-ylmethyl)benzenesulfonyl]-1H-indole], the inhibition at 0.1 µM was found to be 79.2%.
Same read-out and setting: to `COc1ccc2c(ccn2S(=O)(=O)c2cccc(CN3CCN(C)CC3)c2)c1` [Example 9, 5-Methoxy-1-[3-(4-methylpiperazin-1-ylmethyl)benzenesulfonyl]-1H-indole] belongs 67.6%; to `CCOc1ccc2c(ccn2S(=O)(=O)c2cccc(CN3CCN(C)CC3)c2)c1` [Example 11, 5-Ethoxy-1-[3-(4-methylpiperazin-1-ylmethyl)benzenesulfonyl]-1H-indole], 63.7%; to `CCN1CCCN(Cc2cc(S(=O)(=O)n3cc(C)c4ccccc43)ccc2Cl)CC1` [Example 45, 1-[4-Chloro-3-(4-ethyl-[1,4]diazepan-1-ylmethyl)benzenesulfonyl]-3-methyl-1H-indole dihydrochloride], 98.5%.
The same measure, in the same setting: to `Cc1cn(S(=O)(=O)c2ccc(Cl)c(CN3CCCN(C)CC3)c2)c2ccccc12` [Example 46, 1-[4-Chloro-3-(4-methyl[1,4]diazepan-1-ylmethyl)benzenesulfonyl]-3-methyl-1H-indole dihydrochloride] belongs 92.2%.

System in the next data set: not given
Test: not given
Conditions: not given
Compound `CN1CCN(Cc2cc(S(=O)(=O)n3ccc4cc(Br)ccc43)ccc2Cl)CC1.Cl.Cl` came in with a melting point of 214.7 to 215.6 °C.
Compound `CN1CCN(Cc2cc(S(=O)(=O)n3ccc4cc(F)ccc43)ccc2Br)CC1.Cl.Cl` showed a melting point of 219.4 to 221.6 °C.
The same measure, in the same setting: to `COc1ccc2c(c1)c(C)cn2S(=O)(=O)c1ccc(Br)c(CN2CCN(C)CC2)c1.Cl.Cl` belongs 214.3 to 215.7 °C; to `COc1ccc2c(c1)c(C)cn2S(=O)(=O)c1ccc(Cl)c(CN2CCN(C)CC2)c1.Cl.Cl`, 213.3 to 214.2 °C; to `CCN1CCN(Cc2cc(S(=O)(=O)n3cc(C)c4cc(OC)ccc43)ccc2Br)CC1.Cl.Cl`, 211.3 to 212.1 °C.
`COc1ccc2c(c1)c(C)cn2S(=O)(=O)c1ccc(C)c(CN2CCN(C)CC2)c1.Cl.Cl`: the melting point worked out at 190.32 °C.
Still for that read-out and setting: the figure for `CN1CCN(Cc2cc(S(=O)(=O)n3ccc4cc(Br)ccc43)ccc2Br)CC1.Cl.Cl` is 208.2 to 209.2 °C; for `COc1ccc2c(c1)c(Br)cn2S(=O)(=O)c1ccc(Cl)c(CN2CCN(C)CC2)c1.Cl.Cl` it is 195.4 to 199.3 °C; for `CCN1CCN(Cc2cc(S(=O)(=O)n3cc(C)c4cc(OC)ccc43)ccc2C)CC1.Cl.Cl` it is 226.99 °C.
On the same count and under the same terms, the figure for `CCN1CCN(Cc2cc(S(=O)(=O)n3cc(C)c4ccccc43)ccc2Cl)CC1.Cl.Cl` is 218.9 to 220.5 °C; for `COc1ccc2c(ccn2S(=O)(=O)c2ccc(Br)c(CN3CCN(C)CC3)c2)c1` [Example 2, 1-[4-Bromo-3-(4-methylpiperazin-1-ylmethyl)benzenesulfonyl]-5-methoxy-1H-indole] it is 115.2 to 120 °C.
The same measure, in the same setting: the figure for `CCN1CCN(Cc2cc(S(=O)(=O)n3ccc4cc(OC)ccc43)ccc2C)CC1.Cl.Cl` is 160.94 °C; for `CCN1CCN(Cc2cc(S(=O)(=O)n3cc(Br)c4cc(OC)ccc43)ccc2Cl)CC1.Cl.Cl` it is 216.9 to 219.7 °C.
Turning to `CN1CCN(Cc2cc(S(=O)(=O)n3cc(Br)c4cc(F)ccc43)ccc2Cl)CC1` [Example 5, 1-[4-Chloro-3-(4-methylpiperazin-1-ylmethyl)benzenesulfonyl]-5-fluoro-3-bromo-1H-indole], the melting point was 161.3 to 162.6 °C.
